{"source": "paper PMC10349806", "about": "(Nature Communications, 2023)", "key": {"[1]": {"system": "PfCRT variant E207C", "test": "CQ uptake assay, oocytes expressing E207C", "format": "cell-based, Plasmodium falciparum", "experimental": "(§1) Site-directed mutagenesis of PfCRT^Dd2 was performed as described using the megaprimer method with overlap extension[21],[54]. The primer pairs used are listed in Supplementary Table 6. Please note that a codon-optimized and oocyte-adapted version of PfCRT^Dd2 was used[22] (Supplementary Fig. 16). The resulting DNA fragment was cloned into the SP64T expression vector and verified by sequencing.\n(§2) Oocytes were obtained as described previously. Briefly, adult (>2 years old) female X. laevis frogs (NASCO) were anesthetized in a cooled solution of ethyl 3-amino benzoate methanesulfonate (0.1%, w/v), followed by a surgical removal of parts of the ovary. The ovary lobes were carefully dissected and small pieces of oocytes were incubated in Ca^2+-free ND96 buffer (96 mM NaCl, 2 mM KCl, 1 mM MgCl2 buffered with 5 mM HEPES/NaOH, pH 7.5) supplemented with collagenase D (0.1%, w/v; Roche), BSA (0.5%, w/v), and 9 mm Na2HPO4 at 18 °C for 14-16 h while gentle shaking. After incubation, the oocytes were carefully washed several times with ND96 buffer (96 mM NaCl, 2 mM KCl, 1.8 mM CaCl2, 1 mM MgCl2 buffered with 5 mM HEPES/NaOH, pH 7.5) supplemented with 100 mg l^−1 gentamycin). Defolliculated and healthy-looking stage V-VI oocytes were manually selected for RNA microinjection. The RNA was generated as following: The codon-optimized sequences of PfCRT variants were cloned into the pSP64T expression vector. After vector linearization using the restriction endonucleases BamHI or SalI (New England Biolabs), transcription was performed using the in vitro SP6 mMessage mMachine Kit (Ambion)[34]. The obtained RNA was kept at −80 °C and diluted with nuclease-free water to a concentration of 0.6 μg μl^−1. Precision-bore glass capillary tubes (3.5-inch glass capillaries; Drummond Scientific Co.) were pulled on a vertical puller (P-87 Flaming/Brown micropipette puller, Sutter Instrument Co.), graduated, and placed on a microinjector (Nanoject II Auto-Nanoliter Injector, Drummond Scientific Co.). 50 nl of nuclease-free water alone (control oocytes) or 50 nl of 0.6 μg μl^−1 RNA were injected under stereomicroscopic control. Injected oocytes were incubated for 46–72 h at 18 °C with twice-daily buffer changes before usage in experiments.\nDrug uptake assays were performed as described previously[21],[22],[24],[34]. […] The direction of radio-labeled drug transport is here from the mostly acidic extracellular solution (pH 4.5 or 6.0, as indicated) into the oocyte cytosol (pH ∼ 7.2), which corresponds to the efflux of drug from the acidic digestive vacuole (pH 5.2) into the parasite cytoplasm (pH 7.2). The topology of PfCRT in the oolemma is such that both the N- and C-terminus face the extracellular milieu[3],[22]. In the parasite, the N- and C-terminus face the lumen of the digestive vacuole. CQ uptake kinetics were performed by incubating oocytes in ND96 buffer adjusted to a pH of 4.5, 5.0, 5.5, or 6.0 and supplemented with 50 nM [^3H]CQ and one of 7 different CQ concentrations (10 µM, 50 µM, 100 µM, 200 µM, 300 µM, 400 µM, 500 µM CQ). The reaction was stopped at the 60 min time point, which is in the linear uptake range[22],[34] (Supplementary Fig. 17). For determination of the amount of drug uptake for each oocyte, the reaction medium was removed and the oocytes were washed three times with 2 ml of ice-cold ND96 buffer. Each oocyte was individually transferred to a scintillation vial containing 5% sodium dodecyl sulfate (200 μl) for lysis. The radioactivity of each sample was measured using a liquid scintillation analyzer Tri-Carb 4910 TR (PerkinElmer). Oocytes that were injected with water instead of RNA were analyzed in parallel, representing the uptake of a drug by diffusion and/or endogenous permeation pathways. The resulting value represents the “background“ level of drug accumulation in oocytes (in-depth discussion in[22]). […]"}, "[2]": {"system": "PfCRT variant E207A", "test": "Drug uptake assay, oocytes expressing E207A", "format": "cell-based, Plasmodium falciparum", "settings": "for Km: read-out: KM ± SEM", "experimental": "as §1, §2\nDrug uptake assays were performed as described previously[21],[22],[24],[34]. […] The direction of radio-labeled drug transport is here from the mostly acidic extracellular solution (pH 4.5 or 6.0, as indicated) into the oocyte cytosol (pH ∼ 7.2), which corresponds to the efflux of drug from the acidic digestive vacuole (pH 5.2) into the parasite cytoplasm (pH 7.2). The topology of PfCRT in the oolemma is such that both the N- and C-terminus face the extracellular milieu[3],[22]. In the parasite, the N- and C-terminus face the lumen of the digestive vacuole. […] For determination of the amount of drug uptake for each oocyte, the reaction medium was removed and the oocytes were washed three times with 2 ml of ice-cold ND96 buffer. Each oocyte was individually transferred to a scintillation vial containing 5% sodium dodecyl sulfate (200 μl) for lysis. […] Oocytes that were injected with water instead of RNA were analyzed in parallel, representing the uptake of a drug by diffusion and/or endogenous permeation pathways. The resulting value represents the “background“ level of drug accumulation in oocytes (in-depth discussion in[22]). The specific PfCRT-mediated uptake was determined by subtracting the corresponding background value measured in water-injected oocytes from that of PfCRT-expressing oocytes. In all cases, at least three separate experiments were performed on oocytes from different frogs (biological replicate), and for each condition in an experiment, measurements were made from 10 oocytes per treatment. For pH 5.5, 6.0, and 6.5, ND96 was buffered with 5 mM MES/Tris base."}, "[3]": {"settings": "E207C, 50 µM CQ, 1 h, mean ± SEM"}, "[4]": {"settings": "pH 4.5, individual replicates, Fig 6b"}, "[5]": {"settings": "pH 6.0, individual replicates, Fig 6b"}, "[6]": {"settings": "ratio of activity pH 4.5 / pH 6.0"}, "[7]": {"settings": "50 µM CQ, 1 h, independent samples"}}, "note": "Where “and” joins values, the source holds several entries; their conditions need not be identical. Equal values may be shown once. Read-outs that look alike come from different tables or passages of the source.", "data": [{"smiles": "CCN(CC)CCCC(C)Nc1ccnc2cc(Cl)ccc12", "note": "(stereo not drawn) [CQ, chloroquine]", "values": [{"measurement": "Activity at pH 4.5", "setting": "[1]; [3]", "value": "1.30 ± 0.11", "unit": "pmol h-1 oocyte-1"}, {"measurement": "Activity at pH 6.0", "setting": "[1]; [3]", "value": "1.53 ± 0.16", "unit": "pmol h-1 oocyte-1"}, {"measurement": "R-value", "setting": "[1]; E207C, CQ transport at pH 4.5 / pH 6.0", "value": "0.86 ± 0.09"}, {"measurement": "E207C transport activity pH 4.5", "setting": "[1]; [4]", "value": "0.95 pmol oocyte-1 h-1 and 1.34 pmol oocyte-1 h-1 and 1.57 pmol oocyte-1 h-1 and 1.33 pmol oocyte-1 h-1"}, {"measurement": "E207C transport activity pH 6.0", "setting": "[1]; [5]", "value": "1.15 pmol oocyte-1 h-1 and 2.00 pmol oocyte-1 h-1 and 1.64 pmol oocyte-1 h-1 and 1.34 pmol oocyte-1 h-1"}, {"measurement": "E207C R-value", "setting": "[1]; [6]", "value": "0.83 and 0.67 and 0.96 and 0.99"}, {"measurement": "E207A transport activity", "setting": "[2]; 10 µM CQ, pH 4.5, 60 min", "value": "0.59 pmol oocyte-1 h-1 and 0.34 pmol oocyte-1 h-1 and 0.50 pmol oocyte-1 h-1"}, {"measurement": "E207A transport activity", "setting": "[2]; 10 µM CQ, pH 6.0, 60 min", "value": "0.34 pmol oocyte-1 h-1 and 0.28 pmol oocyte-1 h-1 and 0.55 pmol oocyte-1 h-1 and 0.40 pmol oocyte-1 h-1"}, {"measurement": "E207A transport activity pH 5.0", "setting": "[2]; [7]", "value": "1.89 pmol oocyte-1 h-1 and 1.63 pmol oocyte-1 h-1"}, {"measurement": "E207A transport activity pH 5.5", "setting": "[2]; [7]", "value": "2.56 pmol oocyte-1 h-1 and 1.58 pmol oocyte-1 h-1 and 2.27 pmol oocyte-1 h-1"}, {"measurement": "E207A transport activity", "setting": "[2]; 100 µM CQ, pH 4.5, 60 min", "value": "4.66 pmol oocyte-1 h-1 and 5.17 pmol oocyte-1 h-1 and 4.25 pmol oocyte-1 h-1 and 5.82 pmol oocyte-1 h-1"}, {"measurement": "E207A transport activity", "setting": "[2]; 100 µM CQ, pH 6.0, 60 min", "value": "3.91 pmol oocyte-1 h-1 and 5.58 pmol oocyte-1 h-1 and 5.27 pmol oocyte-1 h-1 and 3.70 pmol oocyte-1 h-1 and 4.07 pmol oocyte-1 h-1 and 4.29 pmol oocyte-1 h-1"}, {"measurement": "E207A transport activity", "setting": "[2]; 200 µM CQ, pH 4.5, 60 min", "value": "7.55 pmol oocyte-1 h-1 and 5.35 pmol oocyte-1 h-1 and 6.95 pmol oocyte-1 h-1 and 5.93 pmol oocyte-1 h-1"}, {"measurement": "E207A transport activity", "setting": "[2]; 200 µM CQ, pH 6.0, 60 min", "value": "5.60 pmol oocyte-1 h-1 and 6.08 pmol oocyte-1 h-1 and 5.00 pmol oocyte-1 h-1 and 8.09 pmol oocyte-1 h-1 and 6.01 pmol oocyte-1 h-1"}, {"measurement": "E207A transport activity", "setting": "[2]; 300 µM CQ, pH 4.5, 60 min", "value": "7.51 pmol oocyte-1 h-1 and 7.97 pmol oocyte-1 h-1 and 7.66 pmol oocyte-1 h-1"}, {"measurement": "E207A transport activity", "setting": "[2]; 300 µM CQ, pH 6.0, 60 min", "value": "7.48 pmol oocyte-1 h-1 and 7.35 pmol oocyte-1 h-1 and 8.15 pmol oocyte-1 h-1 and 7.49 pmol oocyte-1 h-1 and 7.22 pmol oocyte-1 h-1"}, {"measurement": "E207A transport activity", "setting": "[2]; 400 µM CQ, pH 4.5, 60 min", "value": "9.19 pmol oocyte-1 h-1 and 7.30 pmol oocyte-1 h-1 and 9.06 pmol oocyte-1 h-1"}, {"measurement": "E207A transport activity", "setting": "[2]; 400 µM CQ, pH 6.0, 60 min", "value": "7.35 pmol oocyte-1 h-1 and 7.71 pmol oocyte-1 h-1 and 9.99 pmol oocyte-1 h-1 and 6.32 pmol oocyte-1 h-1 and 7.81 pmol oocyte-1 h-1"}, {"measurement": "E207A transport activity", "setting": "[2]; 500 µM CQ, pH 4.5, 60 min", "value": "6.87 pmol oocyte-1 h-1 and 8.11 pmol oocyte-1 h-1 and 8.95 pmol oocyte-1 h-1 and 9.82 pmol oocyte-1 h-1"}, {"measurement": "E207A transport activity", "setting": "[2]; 500 µM CQ, pH 6.0, 60 min", "value": "7.79 pmol oocyte-1 h-1 and 6.89 pmol oocyte-1 h-1 and 7.81 pmol oocyte-1 h-1 and 10.28 pmol oocyte-1 h-1 and 8.00 pmol oocyte-1 h-1"}, {"measurement": "transport activity at pH 6.0 compared with PfCRT^Dd2", "setting": "[2]; E207A, 50 µM CQ", "value": 44, "unit": "%"}, {"measurement": "Vmax ± SEM", "setting": "[2]; E207A, pH 4.5", "value": "11 ± 1", "unit": "pmol h^−1 oocyte ^−1"}, {"measurement": "Km", "setting": "[2]; E207A, pH 4.5", "value": "180 ± 30", "unit": "µM"}, {"measurement": "Vmax ± SEM", "setting": "[2]; E207A, pH 6.0", "value": "11 ± 1", "unit": "pmol h^−1 oocyte ^−1"}, {"measurement": "Km", "setting": "[2]; E207A, pH 6.0", "value": "150 ± 30", "unit": "µM"}, {"measurement": "Activity at pH 6.0", "setting": "[2]; E207A, 50 µM CQ, 1 h, mean ± SEM", "value": "2.24 ± 0.15", "unit": "pmol h-1 oocyte-1"}, {"measurement": "R-value", "setting": "[2]; E207A, CQ transport at pH 4.5 / pH 6.0", "value": "0.9 and 0.89 ± 0.03"}, {"measurement": "E207A transport activity pH 4.5", "setting": "[2]; pH 4.5, individual replicates (Fig 6a)", "value": "1.64 pmol oocyte-1 h-1 and 1.58 pmol oocyte-1 h-1 and 3.29 pmol oocyte-1 h-1 and 2.17 pmol oocyte-1 h-1 and 2.03 pmol oocyte-1 h-1 and 1.48 pmol oocyte-1 h-1 and 2.30 pmol oocyte-1 h-1 and 1.60 pmol oocyte-1 h-1"}, {"measurement": "E207A transport activity pH 4.5", "setting": "[2]; [4]", "value": "1.64 pmol oocyte-1 h-1 and 1.58 pmol oocyte-1 h-1 and 3.29 pmol oocyte-1 h-1 and 2.17 pmol oocyte-1 h-1 and 2.03 pmol oocyte-1 h-1 and 1.48 pmol oocyte-1 h-1 and 2.30 pmol oocyte-1 h-1 and 1.60 pmol oocyte-1 h-1"}, {"measurement": "E207A transport activity pH 4.5", "setting": "[2]; pH 4.5, single replicates, Fig 1d left", "value": "1.64 pmol oocyte-1 h-1 and 1.58 pmol oocyte-1 h-1 and 3.29 pmol oocyte-1 h-1 and 2.17 pmol oocyte-1 h-1 and 2.03 pmol oocyte-1 h-1 and 1.48 pmol oocyte-1 h-1 and 2.30 pmol oocyte-1 h-1 and 1.60 pmol oocyte-1 h-1"}, {"measurement": "E207A R-value", "setting": "[2]; pH 4.5 vs pH 6.0, Fig 1d left", "value": "0.81 and 1.04 and 1.03 and 0.85 and 0.93 and 0.99 and 0.74"}, {"measurement": "E207A transport activity pH 6.0", "setting": "[2]; pH 6.0, individual replicates (Fig 6a)", "value": "2.02 pmol oocyte-1 h-1 and 1.94 pmol oocyte-1 h-1 and 3.16 pmol oocyte-1 h-1 and 2.11 pmol oocyte-1 h-1 and 2.38 pmol oocyte-1 h-1 and 1.75 pmol oocyte-1 h-1 and 2.47 pmol oocyte-1 h-1 and 1.62 pmol oocyte-1 h-1 and 2.39 pmol oocyte-1 h-1"}, {"measurement": "E207A transport activity pH 6.0", "setting": "[2]; [5]", "value": "2.02 pmol oocyte-1 h-1 and 1.94 pmol oocyte-1 h-1 and 3.16 pmol oocyte-1 h-1 and 2.11 pmol oocyte-1 h-1 and 2.38 pmol oocyte-1 h-1 and 1.75 pmol oocyte-1 h-1 and 2.47 pmol oocyte-1 h-1 and 1.62 pmol oocyte-1 h-1 and 2.39 pmol oocyte-1 h-1"}, {"measurement": "E207A transport activity pH 6.0", "setting": "[2]; pH 6.0, single replicates, Fig 1d left", "value": "2.02 pmol oocyte-1 h-1 and 1.94 pmol oocyte-1 h-1 and 3.16 pmol oocyte-1 h-1 and 2.11 pmol oocyte-1 h-1 and 2.38 pmol oocyte-1 h-1 and 1.75 pmol oocyte-1 h-1 and 2.47 pmol oocyte-1 h-1 and 1.62 pmol oocyte-1 h-1 and 2.39 pmol oocyte-1 h-1"}, {"measurement": "E207A R-value", "setting": "[2]; [6]", "value": "0.81 and 1.04 and 1.03 and 0.85 and 0.93 and 0.99 and 0.74"}, {"measurement": "E207A R-value", "setting": "[2]; transport activity pH 4.5 relative to pH 6.0 (Fig 6a)", "value": "0.81 and 1.04 and 1.03 and 0.85 and 0.93 and 0.99 and 0.74"}]}]}
